From patent publication US20230348394A1, “COMPOSITIONS AND METHODS FOR TREATING MUSCULAR DYSTROPHIES” (The Regents of the University of California, priority 2020, published 2023)
Structures can show the parent of a compound that is named as a salt.

System: SSPN-HiBiT protein (sarcospan)
Test: C2C12 SSPN-HiBiT protein reporter assay (12-well and 384-well format)
Type: cell-based, murine
Details: SSPN-HiBiT C2C12 myotubes, 5 μM
Experimental: C2C12 SSPN-HiBiT myoblasts were seeded at 25,000 cells per well in 2 ml of growth media in 12 well-plates and incubated for 3 days. Upon reaching confluency, the growth media was replaced with 2 ml of differentiation media. At day 2 of differentiation, the media on the cells was replaced with 2 ml of differentiation media containing compounds at a final concentration of 5.5 μM in 0.06% DMSO. For vehicle control-treated cells, 0.06% DMSO was added to the cells. After 48 hrs the cells were washed with PBS and frozen for 2-24 hrs. The plates containing cells were thawed on ice and 100 μl of ice-cold modified RIPA buffer containing 1% Triton X-100, 0.05% DOC, 0.05% SDS, and Halt Protease Inhibitor was added to each well. Cells were scratched, transferred into 1.5 ml tubes, and centrifuged for 20 min at 16,000×g at 4° C. The cell lysates were transferred into new tubes. DC assay was performed on cell lysates to determine protein concentration. White walled, white bottom 384-well microplates (Greiner) were prefilled with 15 μl of PBS and 15 μl of cell lysates were added to each well in triplicate. Then 30 μl Nano-Glo HiBiT Lytic Detection working solution was added to each well and incubated for 30 min at RT with shaking. The luminescence was measured on the EnVision plate reader and the signal was normalized to protein concentration and signal from vehicle-treated controls.
C2C12 SSPN-HiBiT myoblasts were seeded at 500 cells per well in 50 μl of growth media in 384-well white, clear bottom microplates (Greiner) and incubated for 3 days. Upon reaching confluency, the growth media was replaced with 50 μl of differentiation media consisting of phenol-red free DMEM with 2% horse serum (Sigma-Aldrich) using an EL406 combination washer dispenser (Biotek). At day 2 of differentiation, the media on the cells was aspirated, left with a residual volume of 10 μl, and replaced with 30 μl of fresh differentiation media. 0.5 μl of small molecule in DMSO or DMSO alone (for vehicle and positive control wells) were added to each well using a Biomek Fx (Beckman). To ensure proper mixing of the DMSO, 50 μl of additional differentiation media was added to all wells except the positive control treated wells. The final concentration of compound in each treated well was 0.5-10 μM in 0.55% DMSO and 0.55% DMSO only for vehicle. After 48 hrs of incubation, the plate was washed with phenol red-free DMEM, aspirated, and left with a residual volume of 5 μl using EL406 combination washer dispenser. After the wash, 25 μl of differentiation media containing 12 μM DRAQ5 nuclear stain was added to reach a final concentration 10 μM in each well and incubated for 15 min at 37° C. with 5% CO2. The cells were imaged using ImageXpress Micro Confocal High Content Imaging System (Molecular Devices). The nuclei count of imaged cells were determined using a custom module analysis in MetaXpress Analysis software (Molecular Devices). After imaging and analysis, the plate was aspirated, left with a residual volume of 5 μl and placed at −80° C. for 2-24 hrs. The plate was thawed at RT and 25 μl of PBS was added, followed by 30 μl of Nano-Glo HiBiT Lytic Detection working solution prepared according manufacturer recommendations. Luminescence was measured using the EnVision plate reader and the signal of each well was normalized to nuclei count and signal from vehicle-treated controls.
In order to effectively test new analogues, we created method for detecting SSPN protein in cells, e.g., SSPN-HiBiT. SSPN-HiBiT based on a murine C2C12 cell line expressing endogenous SSPN protein with an N-term fusion protein called the HiBiT, an 11 amino acid subunit of a luciferase enzyme (FIG. 10a). The SSPN-HiBiT protein is quantified through addition of substrate and a larger subunit of the luciferase enzyme to catalyze the formation of luminescent signal. […]

Compound | increase in SSPN-HiBiT levels [fold]
O=C1Nc2ccc(I)cc2/C1=C/c1cc(Br)c(O)c(Br)c1 [GW5074, reference compound] | 1.35

Same assay, conditions: Table 1; *p<0.05

Compound | SSPN-HiBiT, fold change over vehicle
CCN(CC)c1ccc2cc(C(=O)Nc3nnc(C(=O)N4CCOCC4)[nH]3)cnc2c1 | 1.34* fold change over vehicle
CCN(CC)c1ccc2cc(C(=O)Nc3ccc(C(=O)N4CCCCCC4)cc3)cnc2c1 | 1.62* fold change over vehicle
CCN(CC)C(=O)c1ccc(NC(=O)c2cc3cc(OC)ccc3[nH]c2=O)cc1 | 1.51* fold change over vehicle
COc1ccc2nc(C)c(C(=O)Nc3ccc(C(=O)N4CCCCCC4)cc3)cc2c1 [N-(4-(azepane-1-carbonyl)phenyl)-6-methoxy-2-methylquinoline-3-carboxamide] | 1.4* fold change over vehicle
COc1ccc2[nH]c(=O)c(C(=O)Nc3ccc(C(=O)N4CCCOCC4)cc3)cc2c1 [OT-9m, N-(4-(1,4-oxazepane-4-carbonyl)phenyl)-6-methoxy-2-oxo-1,2-dihydroquinoline-3-carboxamide] | 2.4* fold change over vehicle
CCN(CC)c1ccc2cc(C(=O)Nc3ccc(C(=O)N4CCCOCC4)cc3)cnc2c1 | 1.3* fold change over vehicle
Nc1ccc2ncc(C(=O)Nc3ccc(C(=O)N4CCCOCC4)cc3)cc2c1 [N-(4-(1,4-oxazepane-4-carbonyl)phenyl)-6-aminoquinoline-3-carboxamide hydrochloride] | 1.09* fold change over vehicle
COc1ccc2nc(C)c(C(=O)Nc3ccc(C(=O)N4CCCOCC4)cc3)cc2c1 | 1.22* fold change over vehicle
CCN(CC)C(=O)c1ccc(NC(=O)c2cc3ccccc3nc2C)cc1 [N-(4-(diethylcarbamoyl)phenyl)-2-methylquinoline-3-carboxamide] | 1.08* fold change over vehicle
CCN(CC)C(=O)c1ccc(NC(=O)c2c(C)c3ccccc3[nH]c2=O)cc1 [N-(4-(diethylcarbamoyl)phenyl)-4-methyl-2-oxo-1,2-dihydroquinoline-3-carboxamide] | 1.21* fold change over vehicle
COc1ccc2c(c1)CC(C(=O)Nc1ccc(C(=O)N3CCN(C)CC3)cc1)C(=O)N2 (stereo not drawn) | 1.46* fold change over vehicle
CCN(CC)c1ccc2cc(C(=O)Nc3ccc(C(=O)N4CCN(C)CC4)cc3)cnc2c1 | 1.47* fold change over vehicle
CCN(CC)C(=O)c1ccc(NC(=O)c2cnc3cc(N(CC)CC)ccc3c2)cc1 | 1.75* fold change over vehicle
COc1ccc2[nH]c(=O)c(C(=O)Nc3ccc(C(=O)N4CCCCCC4)cc3)cc2c1 | 1.03 fold change over vehicle
CCN(CC)C(=O)c1ccc(NC(=O)c2cc3ccc(F)cc3[nH]c2=O)cc1 [N-(4-(diethylcarbamoyl)phenyl)-7-fluoro-2-oxo-1,2-dihydroquinoline-3-carboxamide] | 1.45* fold change over vehicle

Same assay, conditions: Table 2; *p<0.05

Compound | SSPN-HiBiT, fold change over vehicle
Cc1cc(C)c(C#N)c(OCC(=O)c2ccc(N(C)C)cc2)n1 [2-(2-(4-(dimethylamino)phenyl)-2-oxoethoxy)-4,6-dimethylnicotinonitrile] | 1.09* fold change over vehicle
Cc1cc2cc(C#N)c(OCC(=O)c3ccc(F)cc3F)nc2cc1C | 1.22* fold change over vehicle
Cc1cc2cc(C#N)c(OCC(=O)c3ccc(N(C)C)cc3)nc2cc1C [2-(2-(4-(dimethylamino)phenyl)-2-oxoethoxy)-6,7-dimethylquinoline-3-carbonitrile] | 1.04* fold change over vehicle
Cc1cc2cc(C#N)c(S(=O)(=O)CC(=O)c3ccc(F)cc3)nc2cc1C | 1.23* fold change over vehicle
COc1ccc(C(=O)COc2nc3cc(C)c(C)cc3cc2C#N)cc1 | 1.27* fold change over vehicle
Cc1cc2cc(C#N)c(SCC(=O)c3ccc(F)cc3)nc2cc1C [2-((2-(4-fluorophenyl)-2-oxoethyl)thio)-6,7-dimethylquinoline-3-carbonitrile] | 1.48* fold change over vehicle
Cc1cc2cc(C#N)c(OCC(=O)c3ccc(O)cc3)nc2cc1C | 1.21 fold change over vehicle
Cc1cc(C)c2nc(OCC(=O)c3ccc(N(C)C)cc3)c(C#N)cc2c1 [2-(2-(4-(dimethylamino)phenyl)-2-oxoethoxy)-6,8-dimethylquinoline-3-carbonitrile] | 1.3* fold change over vehicle

System: SSPN transcript
Test: SSPN gene expression after systemic (subcutaneous) treatment of mdx mice
Type: in vivo
Details: 20 mg/kg daily subcutaneous, 13 days, quadriceps
Experimental: For the preliminary safety assessment of OT-9, we performed IP injections in 6 month old C57/B16 males. The mice were injected with 100 μl of vehicle (5% DMSO (Sigma), 95% PBS), 100 μl of 30 mg/kg of OT-9 in vehicle, or 100 μl of 50 mg/kg of OT-9 in vehicle (n=1 mouse per treatment). […] For assessment of activity, 20-weeks old male mdx littermates were injected in both tibialis anterior muscles with vehicle (5% DMSO, 95% PBS) or 86 μg of OT-9. Two mice were injected in both TAs with vehicle and three mice were injected in both TAs with 200 of OT-9 (9.4 mM solution containing 86 μg of OT-9). After 4 hours, the muscles were harvested and processed for gene expression analysis. For assessment of activity of OT-9m after local administration, 19-22-weeks old mdx males were injected in both tibialis anterior muscles with vehicle (5% DMSO, 95% PBS) or 3 mg/kg and 10 mg/kg of OT-9m. After 4 hours, the muscles were harvested and processed for gene expression analysis. […]
Followed by local administration, we evaluated ability of OT-9m to enhance SSPN expression in mdx mice after systemic treatment. […] We determined that mice overexpressing sarcospan by 1.5-fold were not rescued, while mice overexpressing sarcospan by 3-fold were rescued.

Compound | increase of SSPN transcript [fold]
COc1ccc2[nH]c(=O)c(C(=O)Nc3ccc(C(=O)N4CCCOCC4)cc3)cc2c1 [OT-9m, N-(4-(1,4-oxazepane-4-carbonyl)phenyl)-6-methoxy-2-oxo-1,2-dihydroquinoline-3-carboxamide] | 2

System: SSPN gene expression
Test: SSPN gene expression in tibialis anterior after intramuscular injection in mdx mice
Type: in vivo
Details: 3 mg/kg and 10 mg/kg intramuscular, 4 hours
Experimental: For the preliminary safety assessment of OT-9, we performed IP injections in 6 month old C57/B16 males. The mice were injected with 100 μl of vehicle (5% DMSO (Sigma), 95% PBS), 100 μl of 30 mg/kg of OT-9 in vehicle, or 100 μl of 50 mg/kg of OT-9 in vehicle (n=1 mouse per treatment). […] For assessment of activity, 20-weeks old male mdx littermates were injected in both tibialis anterior muscles with vehicle (5% DMSO, 95% PBS) or 86 μg of OT-9. Two mice were injected in both TAs with vehicle and three mice were injected in both TAs with 200 of OT-9 (9.4 mM solution containing 86 μg of OT-9). After 4 hours, the muscles were harvested and processed for gene expression analysis. For assessment of activity of OT-9m after local administration, 19-22-weeks old mdx males were injected in both tibialis anterior muscles with vehicle (5% DMSO, 95% PBS) or 3 mg/kg and 10 mg/kg of OT-9m. After 4 hours, the muscles were harvested and processed for gene expression analysis. For assessment of activity of OT-9m after systemic administration, 13-weeks old mdx males were injected subcutaneously with vehicle (4% PEG-200 in hydroxypropyl-b-cyclodextrin) or 20 mg/kg/day of OT-9m. After 13 days of treatment, the muscles were harvested and processed for gene expression analysis.
After the preliminary safety evaluation, we tested the ability of OT-9 to increase SSPN gene expression in vivo. […] Five 20-weeks old male mdx littermates were subjected to intramuscular injections in both tibialis anterior (TA) muscles. Two mice were injected in both TAs with vehicle and […] were injected with 3 mg/kg of OT-9 (molar equivalent of 9.4 mM used in the safety assessment). After 4 hours of treatment, the TAs were harvested and processed for gene expression analysis. […] After determination that OT-9 is capable of increasing SSPN gene expression in vivo, we evaluated one of its derivatives, OT-9m, for its ability to increase SSPN expression in mdx mice. OT-9m was chosen based on its improved activity in vitro compared to OT-9 (compare, Table 1, entries 1 & 14). To assess activity OT-9m in vivo after local administration, eleven 19-22 weeks old male mdx mice were subjected to intramuscular injections in both tibialis anterior (TA) muscles. Four mice were injected in both TAs with vehicle, three mice were injected with 3 mg/kg of OT-9m and four mice were injected with 10 mg/kg of OT-9m. After 4 hours of treatment, the TAs were harvested and processed for gene expression analysis.

Compound | SSPN gene expression in tibialis anterior
COc1ccc2[nH]c(=O)c(C(=O)Nc3ccc(C(=O)N4CCCOCC4)cc3)cc2c1 [OT-9m, N-(4-(1,4-oxazepane-4-carbonyl)phenyl)-6-methoxy-2-oxo-1,2-dihydroquinoline-3-carboxamide] | increased SSPN gene expression

Same assay, conditions: OT-9m 3 mg/kg and 10 mg/kg intramuscular, both TA, 4 hours

Compound | adverse effects after local injection
COc1ccc2[nH]c(=O)c(C(=O)Nc3ccc(C(=O)N4CCCOCC4)cc3)cc2c1 [OT-9m, N-(4-(1,4-oxazepane-4-carbonyl)phenyl)-6-methoxy-2-oxo-1,2-dihydroquinoline-3-carboxamide] | No adverse effects
